Measurements from patent US20100234243A1, “PTU COMPOUNDS FOR PROMOTING THE IN VITRO CULTURE OF (HIGHLY PIGMENTED) MELANOCYTES” (L'OREAL, priority 2004, published 2010).

Experiments:
Format in all cases: cell-based, human
[1] = system: melanocytes of phototype VI (African); test: Viability of melanocytes after freezing, thawing and re-culturing; details: PTU 10 μM before freezing; non-treated 5%
Protocol: They are then centrifuged and the pellet is resuspended in foetal calf serum+10% DMSO at a concentration of 10^6 cells/ml. The cells are frozen in cryotubes at −80° C. After 24 h, the tubes are transferred into liquid nitrogen at −196° C. For the thawing, the tubes are placed in a water bath at 37° C. and, after rapid thawing, 5 ml of M2 medium are added. The cells are centrifuged at 190 g for 5 min, the pellet is resuspended in M2 medium, and the cells are seeded into a flask and re-cultured under the conditions described in a).

[2] = system: melanocytes of phototype VI (African) in reconstructed epidermis; test: Functionality of PTU-multiplied melanocytes in reconstructed epidermis (DOPA reaction, Fontana-Masson staining); details: melanocytes multiplied beforehand with 5 μM or 10 μM PTU, treatment stopped
Protocol: The support is rinsed in the culture medium and then possibly coated with collagen type IV, fibronectin or laminin, for example. After contact at +4° C. overnight, the keratinocytes and the melanocytes of phototype VI (African) multiplied beforehand in the presence of 5 μM or 10 μM PTU, as described in Example 1, are then seeded onto said support. The culture can then be maintained immersed in a medium for keratinocytes in the presence of growth factor. After an incubation time of 3 to 5 days, the skin equivalent of phototype VI (African) undergoing formation is maintained at the air/liquid interface, for example by deposition onto a metal screen or removal of the culture medium present at the surface of an insert. The liquid then preferentially consists of the same nutritive medium as the previous one, but in which the growth factors have been reduced. The incubation then continues until a skin equivalent of phototype VI (African) is obtained. Thus, the incubation continues for a period of from 5 to 30 days, preferentially from 7 to 10 days. The reconstructed skin model of phototype VI (African) thus produced comprises two entities, the support, dermal equivalent, and the epidermal equivalent, which can be physically separated from one another. […] This enzyme is responsible for the oxidation of tyrosine to […] (DOPA) and then for the oxidation of DOPA to DOPA-quinone. […]

[3] = system: melanocytes of phototype VI (African); test: Pigmentation (luminance L*) and melanogenesis inhibition in melanocyte cultures
Protocol: The pigmentation of the melanocytes of phototype VI (African), treated with 10 μM PTU or not treated, is measured by the value L* (luminance) of the cultures given by the spectrocolorimeter (FIG. 1). […] Melanin synthesis is decreased during treatment and becomes normal again in the absence of treatment. The IC50 of PTU (i.e., the concentration of PTU for which 50% inhibition of melanogenesis is observed compared with the control on cultures of melanocytes of phototype VI (African), is evaluated from 50 μM to 100 μM.

[4] = system: melanocytes of phototype VI (African); test: Effect of PTU on proliferation of melanocytes (amount of cells obtained per passage)
[5] = system: melanocytes of phototype VI (African); test: Determination of the non-cytotoxic concentration of PTU (cell adherence, observed under a microscope); details: for adherent cells (viability): primary culture without PTU 80%
Protocol: a) Preparation of a Primary Culture of […] Melanocytes: The melanocytes were obtained from a foreskin of a child according to the following protocol: the skin is cut into fragments of 6 mm and incubated at +4° C. overnight in the presence of 0.25% trypsin. The epidermis is then separated from the dermis in foetal calf serum. The pieces of dermis are scraped in order to recover the basal cells and the melanocytes. The epidermal fragments are then vortexed and the cells are then centrifuged at […] for 5 min. These cells (mixture of melanocytes and keratinocytes) are counted and seeded at a density of 8 to 15×10^6 cells per 75 cm^2 flask, in 18 to 20 ml of M2 medium (Promocell). The melanocytes are then purified according to the following protocol: the culture medium is changed 3 times a week and when the cells are confluent, the flasks are emptied and rinsed once with PBS-Ca^2+Mg^2+. 3 ml of trypsin-EDTA are then added per flask and the flasks are incubated at ambient temperature for 3-4 min: the melanocytes detach whereas the keratinocytes remain attached to the flask. An equivalent volume of M2 medium is added and the detached cells are counted and seeded at a density of 10^6 cells per 75 cm^2 flask, in 18 to 20 ml of M2 medium (Promocell). A primary culture of […] human melanocytes is thus obtained. The trypsinization is repeated when the melanocytes reach confluency (passage 1 et seq.). The melanocytes in the primary culture are 80% viable, i.e., 80% of the melanocytes adhere to the flask. b) Determination of the Non-Cytotoxic Concentration of PTU: Reversible Effect: Part of the primary culture of melanocytes is treated with PTU (Sigma) at the concentrations of 5 μM, 10 μM and 50 μM, at passage 2/3 or preferably from the first passage. The cytotoxicity of the effect of the PTU is evaluated by observing the cells under a microscope.

[6] = system: epidermis reconstructed from melanocytes of phototype VI (African); test: Depigmenting activity on reconstructed epidermis (luminance L* by colorimeter); details: 100 μM, topical, 3 applications for 5 days; FIG. 3
Protocol: The epidermis reconstructed from melanocytes of phototype VI (African), prepared under the conditions of Example 2, is used to screen the depigmenting activity of active agents.
The test products—arbutin at 100 μM and vitamin C phosphate at 280 μM—are applied topically to said reconstructed epidermis: 3 applications (3 μM/sample) for 5 days from the 5th day of immersion.
Vitamin C phosphate at 280 μM is also applied systemically, i.e., in the culture medium, throughout the duration of the epidermal reconstruction.
The control is the measurement of luminance of the reconstructed epidermis in the absence of test product.
On epidermis reconstructed on BPER (Episkin®), since the dermal support is translucent, it cannot be evaluated directly on the samples. The latter are therefore de-epidermalized and then digested with a solution of proteinase K. The lysates obtained are filtered on DEAE cellulose, which retains the melanin. The luminance is then measured on the filter.
The luminance L*, or lightness, of the sample is measured using a colorimeter. The darker a sample is, the weaker its luminance.

[7] = PTU 5 μM or 10 μM added at passage 2/3, non-treated cells multiply 2-fold
[8] = PTU 10 μM added at passage 4/5, non-treated control factor of 2

SMILES | viable melanocytes after freezing, thawing and re-culturing [1] | DOPA assay (tyrosinase DOPA-oxidase activity) of treated melanocytes [2] | integration of treated melanocytes into the reconstructed epidermis [2] | IC50 ([3]; Homo sapiens, Melanocyte, cultures of melanocytes of phototype VI (African), read-out: IC50, concentration for 50% inhibition of melanogenesis compared with the control) | amount of pigment in the melanocytes (luminance L*) ([3]; PTU 10 μM, effect reversible when treatment is stopped, FIG. 1) | amount of pigment excreted by the melanocytes into the medium ([3]; after PTU treatment) | multiplication of melanocytes ([4]; PTU 5 μM instead of 10 μM, treated from the first passage) | factor of stimulation of multiplication at passage 8 [4, 7] | factor of stimulation of multiplication at passage 9 [4, 7] | multiplication factor of treated cells at passage 8 [4, 8] | multiplication factor of treated cells at passage 9 [4, 8] | percentage viability during multiplication ([4]; PTU 10 μM, non-treated control 80%) | adherent cells (viability) ([5]; PTU 5 μM) | adherent cells (viability) ([5]; PTU 10 μM) | cytotoxicity on melanocytes from African individuals ([5]; PTU 50 μM, most of the cells detach) | increase in luminance versus control [6]
S=C(Nc1ccccc1)Nc1nccs1 [PTU, 1-phenyl-3-(2-thiazolyl)-2-thiourea] | 80% | reactive | integrate into the reconstructed epidermis | 50 to 100 µM | decreases the amount of pigment in the melanocytes | reduced | results of the same order of magnitude | 5 | 15 | 5 | 15 | 95% | 95% | 95% | cytotoxic | 
OC[C@H]1O[C@@H](Oc2ccc(O)cc2)[C@H](O)[C@@H](O)[C@@H]1O [arbutin] |  |  |  |  |  |  |  |  |  |  |  |  |  |  |  | 1.8 points of L*
